Here are results for 27 compounds from ChEMBL document CHEMBL3991601, “The target landscape of clinical kinase drugs” (Science, 2017).

By Kd is commonly meant the constant that tells how readily two partners part at equilibrium.

Activity calls are given as the source filed them.

In experiment [1] the target is T1, ATP-dependent RNA helicase DDX42 (Homo sapiens, UniProt Q86XP3).
T1 sequence (Q86XP3 whole entry): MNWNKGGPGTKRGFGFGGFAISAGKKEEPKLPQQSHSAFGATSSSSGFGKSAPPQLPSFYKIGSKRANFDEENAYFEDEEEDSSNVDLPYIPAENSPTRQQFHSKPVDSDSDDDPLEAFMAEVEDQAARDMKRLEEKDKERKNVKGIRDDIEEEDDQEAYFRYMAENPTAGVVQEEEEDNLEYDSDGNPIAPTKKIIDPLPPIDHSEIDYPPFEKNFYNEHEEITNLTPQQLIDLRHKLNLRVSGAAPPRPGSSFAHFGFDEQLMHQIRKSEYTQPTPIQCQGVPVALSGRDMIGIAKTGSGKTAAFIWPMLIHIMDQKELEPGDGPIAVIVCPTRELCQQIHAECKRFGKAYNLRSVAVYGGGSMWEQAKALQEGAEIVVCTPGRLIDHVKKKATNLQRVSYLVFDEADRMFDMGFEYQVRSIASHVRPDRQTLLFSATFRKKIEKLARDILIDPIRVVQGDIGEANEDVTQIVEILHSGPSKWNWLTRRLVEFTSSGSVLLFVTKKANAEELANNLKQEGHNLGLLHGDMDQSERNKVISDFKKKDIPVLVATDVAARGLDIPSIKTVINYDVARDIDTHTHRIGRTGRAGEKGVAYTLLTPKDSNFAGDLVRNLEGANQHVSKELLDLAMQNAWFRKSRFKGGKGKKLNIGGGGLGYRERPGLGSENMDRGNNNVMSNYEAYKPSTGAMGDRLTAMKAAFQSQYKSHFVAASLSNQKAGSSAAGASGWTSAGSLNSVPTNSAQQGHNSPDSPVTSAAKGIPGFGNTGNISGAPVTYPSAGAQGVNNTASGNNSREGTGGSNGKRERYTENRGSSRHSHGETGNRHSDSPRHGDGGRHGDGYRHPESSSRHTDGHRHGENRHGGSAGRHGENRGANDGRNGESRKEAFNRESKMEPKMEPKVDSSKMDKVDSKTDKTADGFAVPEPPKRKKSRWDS

In another experiment the target is T2, Ephrin type-B receptor 2 (Homo sapiens, UniProt P29323).
T2 sequence (P29323 whole entry): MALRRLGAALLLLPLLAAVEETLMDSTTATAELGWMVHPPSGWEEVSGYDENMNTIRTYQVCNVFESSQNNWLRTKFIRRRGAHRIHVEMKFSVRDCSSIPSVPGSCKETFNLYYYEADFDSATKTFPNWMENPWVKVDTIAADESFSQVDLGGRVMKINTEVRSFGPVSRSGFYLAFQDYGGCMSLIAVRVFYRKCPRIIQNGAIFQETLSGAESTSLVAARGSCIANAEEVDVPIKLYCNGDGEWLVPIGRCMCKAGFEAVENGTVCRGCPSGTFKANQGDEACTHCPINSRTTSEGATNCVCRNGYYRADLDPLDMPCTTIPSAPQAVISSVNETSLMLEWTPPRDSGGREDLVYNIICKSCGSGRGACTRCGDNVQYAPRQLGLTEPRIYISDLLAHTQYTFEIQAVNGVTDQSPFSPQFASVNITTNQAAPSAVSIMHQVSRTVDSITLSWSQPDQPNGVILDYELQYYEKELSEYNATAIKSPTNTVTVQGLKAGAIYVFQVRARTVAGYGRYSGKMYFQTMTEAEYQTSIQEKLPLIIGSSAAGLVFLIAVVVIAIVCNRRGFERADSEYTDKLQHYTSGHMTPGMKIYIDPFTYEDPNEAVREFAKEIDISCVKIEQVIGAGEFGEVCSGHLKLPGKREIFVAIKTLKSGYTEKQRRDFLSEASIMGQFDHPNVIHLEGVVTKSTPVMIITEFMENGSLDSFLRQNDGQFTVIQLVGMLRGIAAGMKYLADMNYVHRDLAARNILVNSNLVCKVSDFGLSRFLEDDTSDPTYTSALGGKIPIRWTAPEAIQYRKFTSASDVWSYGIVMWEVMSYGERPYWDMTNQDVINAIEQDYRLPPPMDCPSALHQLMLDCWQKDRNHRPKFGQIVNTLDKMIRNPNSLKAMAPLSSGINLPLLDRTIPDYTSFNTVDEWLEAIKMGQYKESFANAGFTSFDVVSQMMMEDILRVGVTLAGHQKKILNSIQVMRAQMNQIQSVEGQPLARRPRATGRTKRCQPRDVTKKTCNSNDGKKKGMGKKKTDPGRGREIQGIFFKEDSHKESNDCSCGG

Experiment [2] deals with cAMP-dependent protein kinase catalytic subunit gamma (Homo sapiens, UniProt P22612).
For experiment [3], the target named is Protein kinase C delta type (Homo sapiens, UniProt Q05655).
Experiment [4] addresses Guanine nucleotide-binding protein G(i) subunit alpha-2 (Homo sapiens, UniProt P04899).
Also: in the data inactive means no Kd found up to 30 µM.

cAMP-dependent protein kinase catalytic subunit gamma, sequence (P22612 whole entry): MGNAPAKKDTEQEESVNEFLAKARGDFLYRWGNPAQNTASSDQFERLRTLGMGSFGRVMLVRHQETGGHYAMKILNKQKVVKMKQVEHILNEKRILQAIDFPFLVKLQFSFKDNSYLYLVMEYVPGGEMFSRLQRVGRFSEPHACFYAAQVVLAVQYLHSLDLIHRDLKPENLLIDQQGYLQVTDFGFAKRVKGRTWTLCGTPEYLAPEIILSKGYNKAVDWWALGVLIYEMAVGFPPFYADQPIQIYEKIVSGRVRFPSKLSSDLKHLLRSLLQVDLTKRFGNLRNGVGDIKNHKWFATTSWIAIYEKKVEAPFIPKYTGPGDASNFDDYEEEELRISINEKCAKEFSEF
Guanine nucleotide-binding protein G(i) subunit alpha-2, sequence (P04899 whole entry): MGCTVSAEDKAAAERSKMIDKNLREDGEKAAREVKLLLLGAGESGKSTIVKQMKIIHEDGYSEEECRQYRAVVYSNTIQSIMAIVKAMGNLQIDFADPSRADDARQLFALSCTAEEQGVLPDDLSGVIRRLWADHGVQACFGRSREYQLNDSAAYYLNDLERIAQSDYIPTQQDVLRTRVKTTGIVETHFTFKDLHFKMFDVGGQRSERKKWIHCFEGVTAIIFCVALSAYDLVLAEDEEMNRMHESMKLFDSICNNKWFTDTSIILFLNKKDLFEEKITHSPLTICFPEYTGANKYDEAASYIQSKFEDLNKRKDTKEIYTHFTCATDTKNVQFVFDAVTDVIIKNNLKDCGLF
Protein kinase C delta type, sequence (Q05655 whole entry): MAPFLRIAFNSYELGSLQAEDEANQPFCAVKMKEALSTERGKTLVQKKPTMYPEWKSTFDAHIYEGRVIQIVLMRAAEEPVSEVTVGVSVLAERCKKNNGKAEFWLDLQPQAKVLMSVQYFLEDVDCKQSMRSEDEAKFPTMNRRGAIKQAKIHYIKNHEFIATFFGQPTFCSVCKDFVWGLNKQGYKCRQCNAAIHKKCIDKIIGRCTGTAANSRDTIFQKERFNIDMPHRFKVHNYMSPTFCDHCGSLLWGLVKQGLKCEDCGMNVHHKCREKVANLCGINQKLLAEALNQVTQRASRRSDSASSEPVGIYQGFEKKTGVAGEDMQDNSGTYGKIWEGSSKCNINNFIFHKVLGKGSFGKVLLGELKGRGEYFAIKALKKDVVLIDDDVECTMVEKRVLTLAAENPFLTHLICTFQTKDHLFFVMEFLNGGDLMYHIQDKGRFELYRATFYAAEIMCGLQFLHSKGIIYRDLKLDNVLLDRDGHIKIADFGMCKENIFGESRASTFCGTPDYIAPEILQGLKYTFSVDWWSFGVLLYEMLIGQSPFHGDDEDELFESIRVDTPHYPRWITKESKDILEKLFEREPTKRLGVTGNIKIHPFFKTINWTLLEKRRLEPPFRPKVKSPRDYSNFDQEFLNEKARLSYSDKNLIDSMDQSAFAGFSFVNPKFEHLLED

With `CC(=O)c1cnc2ccc(-c3cc(Cl)c(O)c(Cl)c3)nc2c1N[C@H]1CC[C@H](CN(C)C)CC1`, the figures for the Kd (in experiment [1]; on Ephrin type-B receptor 2; in experiment [2]) were > 30 µM (inactive), 0.149 µM (active) and > 30 µM (inactive), respectively.

On to `C=CC(=O)N1CCC[C@H](n2c(=O)n(-c3ccc(Oc4ccccc4)cc3)c3c(N)ncnc32)C1`, for which the Kd (in experiment [1]; at Ephrin type-B receptor 2; in experiment [2]; in experiment [3]) was > 30 µM (inactive) each time.

Regarding `COCc1c(-c2ccc(NC(=O)Nc3cc(C(F)(F)F)ccc3F)c(F)c2)c2c(N)ncnn2c1CN1CCOCC1`, the Kd is > 30 µM (inactive) in experiment [1], > 30 µM (inactive) at Ephrin type-B receptor 2, > 30 µM (inactive) in experiment [2] and 5.08 µM (active) in experiment [3].

On to `CNC(=O)c1ccccc1Sc1ccc2c(/C=C/c3ccccn3)n[nH]c2c1` [AXITINIB], for which the Kd in experiment [1], in experiment [4] and in experiment [2] was > 30 µM (inactive) in each case.

In the case of `Cc1cc(C(=O)NOCCO)c(Nc2ccc(I)cc2F)n(C)c1=O` [AZD-8330], the Kd (in experiment [1]; on Ephrin type-B receptor 2; in experiment [2]; in experiment [3]) was > 30 µM (inactive) throughout.

For `CCn1c(C(=O)N(C2CC2)C2CC2)cc2c3c(ncn3C)c(Nc3cc(C)n(C)n3)nc21` [BMS-911543], the Kd (in experiment [1]; on Ephrin type-B receptor 2; in experiment [2]; in experiment [3]) was > 30 µM (inactive) in each case.

On to `Cn1cc(C2=C(c3cn(C4CCN(Cc5ccccn5)CC4)c4ccccc34)C(=O)NC2=O)c2ccccc21` [ENZASTAURIN], for which, in experiment [2], the Kd is > 30 µM (inactive).

For `Cc1nc2cc(-n3ncc(C(=O)c4cc5ccccc5[nH]4)c3N)ccc2[nH]1` [FGFR INHIBITOR DEBIO 1347], the Kd (in experiment [1]; at Ephrin type-B receptor 2; in experiment [3]) was > 30 µM (inactive) throughout.

Consider `O=C(Nc1nc2cccc(-c3ccc(CN4CCS(=O)(=O)CC4)cc3)n2n1)C1CC1` [FILGOTINIB], for which the Kd (in experiment [1]; at Ephrin type-B receptor 2; in experiment [2]; in experiment [3]) was > 30 µM (inactive) throughout.

For the compound `C[C@@H](Oc1cc(-n2cnc3ccc(CN4CCN(C)CC4)cc32)sc1C(N)=O)c1ccccc1C(F)(F)F` [GSK-461364], the Kd in experiment [1] and in experiment [4] was > 30 µM (inactive) in each case.

As to `CCn1cc(-c2ccnc3[nH]c(-c4cccc(CN(C)C)c4)cc23)c(-c2ccc(NC(=O)N(C)C)cc2)n1` [GSK-1070916], the Kd (in experiment [1]; on Ephrin type-B receptor 2; in experiment [3]) was > 30 µM (inactive) each time.

For `NC1(c2ccc(-c3nc4ccn5c(=O)[nH]nc5c4cc3-c3ccccc3)cc2)CCC1` [MK-2206], the Kd (in experiment [1]; at Ephrin type-B receptor 2; in experiment [2]; in experiment [3]) was > 30 µM (inactive) in each case.

On to `COc1ncc(-c2ccc3nccc(-c4ccnnc4)c3c2)cc1NS(=O)(=O)c1ccc(F)cc1F` [OMIPALISIB], for which the Kd (at Ephrin type-B receptor 2; in experiment [2]; in experiment [3]) was > 30 µM (inactive) each time.

`Cc1[nH]c(/C=C2\C(=O)Nc3ccccc32)c(C)c1CCC(=O)O` [ORANTINIB]: the Kd (in experiment [1]; on Ephrin type-B receptor 2; in experiment [4]) was > 30 µM (inactive) in each case.

On to `NC(=O)c1c(OCc2c(F)cc(Br)cc2F)nsc1NC(=O)NCCCCN1CCCC1` [OSI-632], for which the Kd (at Ephrin type-B receptor 2; in experiment [4]; in experiment [2]) was > 30 µM (inactive) throughout.

`CCOc1cc2ncc(C#N)c(Nc3ccc(F)c(Cl)c3)c2cc1NC(=O)/C=C/CN(C)C` [PELITINIB]: the Kd (in experiment [1]; at Ephrin type-B receptor 2; in experiment [4]) was > 30 µM (inactive) throughout.

Turning to `CCCCCCCCCCCCCCCCCCOP(=O)([O-])OC1CC[N+](C)(C)CC1` [PERIFOSINE], the Kd (in experiment [1]; at Ephrin type-B receptor 2; in experiment [2]; in experiment [3]) was > 30 µM (inactive) each time.

With `CC(=O)NCC(=O)N1[C@@H]2CC[C@H]1c1ccc(Nc3ncc(C(F)(F)F)c(NC4CCC4)n3)cc12` [PF-03814735], the Kd (in experiment [1]; at Ephrin type-B receptor 2; in experiment [2]) was > 30 µM (inactive) each time.

`CNC(=O)c1cc(Oc2ccc(NC(=O)Nc3cc(C(C)(C)C)nn3-c3ccc4ncccc4c3)c(F)c2)ccn1` [REBASTINIB]: the Kd (in experiment [1]; at Ephrin type-B receptor 2; in experiment [2]; in experiment [3]) was > 30 µM (inactive) in each case.

As for `N#CC1(c2ccc(NC(=O)c3cccnc3NCc3ccncc3)cc2)CCCC1` [RIVOCERANIB], the Kd (in experiment [1]; at Ephrin type-B receptor 2; in experiment [2]; in experiment [3]) was > 30 µM (inactive) in each case.

As for `N#CC[C@H](C1CCCC1)n1cc(-c2ncnc3[nH]ccc23)cn1` [RUXOLITINIB], the Kd in experiment [4] and in experiment [2] was > 30 µM (inactive) in each case.

Consider `Cn1cc(-c2cnn3c(N)c(Br)c([C@@H]4CCCNC4)nc23)cn1` [SCH-900776], for which the Kd is > 30 µM (inactive) in experiment [1], > 30 µM (inactive) at Ephrin type-B receptor 2, > 30 µM (inactive) in experiment [2] and 1.64 µM (active) in experiment [3].

Consider `CO[C@H]1C[C@@H]2CC[C@@H](C)[C@@](O)(O2)C(=O)C(=O)N2CCCC[C@H]2C(=O)O[C@H]([C@H](C)C[C@@H]2CC[C@@H](O)[C@H](OC)C2)CC(=O)[C@H](C)/C=C(\C)[C@@H](O)[C@@H](OC)C(=O)[C@H](C)C[C@H](C)/C=C/C=C/C=C/1C` [SIROLIMUS], for which the Kd (on Ephrin type-B receptor 2; in experiment [3]) was > 30 µM (inactive) in each case.

In the case of `O=C(Cc1ccc(-c2ccc(OCCN3CCOCC3)cc2)cn1)NCc1ccccc1` [TIRBANIBULIN], the Kd (in experiment [1]; on Ephrin type-B receptor 2; in experiment [3]) was > 30 µM (inactive) throughout.

Turning to `Cc1cc(Nc2ncnc3ccc(NC4=NC(C)(C)CO4)cc23)ccc1Oc1ccn2ncnc2c1` [TUCATINIB], the Kd (in experiment [1]; on Ephrin type-B receptor 2; in experiment [2]; in experiment [3]) was > 30 µM (inactive) each time.

For the compound `CC(C)c1cc(CNc2nc(Nc3cc(C4CC4)[nH]n3)cc(N3CCN(C)CC3)n2)on1` [XL-228], the figures for the Kd (at Ephrin type-B receptor 2; in experiment [2]; in experiment [3]) were 2.51 µM (active), > 30 µM (inactive) and > 30 µM (inactive), respectively.

Turning to `C[C@@H](N)c1ccc(C(=O)Nc2ccnc3[nH]ccc23)cc1` [Y-39983], the Kd in experiment [1] was > 30 µM (inactive); at Ephrin type-B receptor 2, > 30 µM (inactive); in experiment [2], > 30 µM (inactive); in experiment [3], 0.034 µM (active).
